The values that follow come from ChEMBL document CHEMBL5532734, “Lysosomal Degradation of Extracellular Targets: Innovations and Implications” (ACS Med Chem Lett, 2024).

This experiment deals with T1, Sortilin (Homo sapiens, UniProt Q99523).
T1 sequence (Q99523 whole entry): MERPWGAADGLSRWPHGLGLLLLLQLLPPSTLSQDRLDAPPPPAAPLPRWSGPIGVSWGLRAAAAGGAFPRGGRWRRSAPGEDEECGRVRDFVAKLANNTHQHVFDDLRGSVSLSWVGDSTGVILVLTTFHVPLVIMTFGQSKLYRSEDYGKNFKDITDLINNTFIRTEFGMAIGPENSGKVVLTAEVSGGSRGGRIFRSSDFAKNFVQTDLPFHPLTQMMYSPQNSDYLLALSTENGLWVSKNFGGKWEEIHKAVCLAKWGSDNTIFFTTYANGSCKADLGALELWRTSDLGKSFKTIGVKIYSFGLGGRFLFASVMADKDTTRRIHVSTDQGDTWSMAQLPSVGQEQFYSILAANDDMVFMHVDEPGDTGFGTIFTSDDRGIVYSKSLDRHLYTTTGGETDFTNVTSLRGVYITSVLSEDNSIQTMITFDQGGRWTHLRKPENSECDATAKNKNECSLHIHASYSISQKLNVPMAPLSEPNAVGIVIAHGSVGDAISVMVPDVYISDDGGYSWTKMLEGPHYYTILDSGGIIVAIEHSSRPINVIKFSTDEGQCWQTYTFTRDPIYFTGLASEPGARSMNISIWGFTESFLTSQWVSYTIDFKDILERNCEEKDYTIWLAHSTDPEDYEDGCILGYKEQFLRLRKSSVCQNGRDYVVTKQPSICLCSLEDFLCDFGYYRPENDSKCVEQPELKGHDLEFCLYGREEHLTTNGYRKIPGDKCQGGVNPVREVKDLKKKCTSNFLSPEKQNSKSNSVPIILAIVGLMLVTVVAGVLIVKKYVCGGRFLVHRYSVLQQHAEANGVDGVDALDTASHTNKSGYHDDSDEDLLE
Description: Binding affinity to 6-His tagged sortilin (unknown origin) assessed as equilibrium dissociation constant by MST analysis.

The Kd is a measure of binding affinity in units of concentration.

With `CC(C)(C)CC[C@H](NC(=O)c1ccc(Oc2cccc(C(=O)NCCOCCOCCOCCOCCOCCNc3ncc(-c4ccc5c(n4)N(Cc4cccnc4C#N)C(C)(C)C5=O)cn3)c2)nc1)C(=O)O`, the Kd is less than 1 nM. Next, `C[C@@H]1CN(c2ncc(-c3ccc4c(n3)N(Cc3cccnc3C#N)C(C)(C)C4=O)cn2)CCN1C(=O)CNC(=O)CCCCCCCCCNC(=O)c1cccc(Oc2ccc(C(=O)N[C@@H](CCC(C)(C)C)C(=O)O)cn2)c1`: less than 1 nM. With `CC(C)(C)CC[C@H](NC(=O)c1ccc(Oc2cccc(C(=O)NCCOCCOCCOCCOCCOCCOc3ncc(-c4ccc5c(n4)N(Cc4cccnc4C#N)C(C)(C)C5=O)cn3)c2)nc1)C(=O)O` the figure was less than 1 nM; with `CC(C)(C)CC[C@H](NC(=O)c1ccc(Oc2cccc(OCCOCCOCCOCCOCCOCCOCCNC(=O)CCC[C@@H]3SC[C@@H]4NC(=O)N[C@@H]43)c2)nc1)C(=O)O`, 1 nM. With `C[C@@H]1CN(c2ncc(-c3ccc4c(n3)N(Cc3cccnc3C#N)C(C)(C)C4=O)cn2)CCN1C(=O)COCCCCCCCCNC(=O)c1cccc(Oc2ccc(C(=O)N[C@@H](CCC(C)(C)C)C(=O)O)cn2)c1` the figure was less than 1 nM; with `C[C@@H]1CN(c2ncc(-c3ccc4c(n3)N(Cc3cccnc3C#N)C(C)(C)C4=O)cn2)CCN1C(=O)COCCCCNC(=O)c1cccc(Oc2ccc(C(=O)N[C@@H](CCC(C)(C)C)C(=O)O)cn2)c1`, less than 1 nM.
